In ChEMBL document CHEMBL5385969, “Design, synthesis, in vitro and in silico evaluation of indole-based tetrazole derivatives as putative anti-breast cancer agents” (RSC Med Chem, 2024):
pIC50: −log10 of the molar value.

Columns and labels:
MDA-MB-231 = test: cells; settings: Homo sapiens, MDA-MB-231, 48 h
Description: Antiproliferative activity against human MDA-MB-231 cells assessed as inhibition of cell growth incubated for 48 hrs by MTT assay

MCF7 = test: cells; settings: Homo sapiens, MCF7, 48 h
Description: Antiproliferative activity against human MCF7 cells assessed as inhibition of cell growth incubated for 48 hrs by MTT assay

T47D = test: cells; settings: Homo sapiens, 48 h
Description: Antiproliferative activity against human T47D cells assessed as inhibition of cell growth incubated for 48 hrs by MTT assay

[1] = Cytotoxicity against human HEK293 cells incubated for 48 hrs by MTT assay; format: toxicity, cell-based

SMILES: Cc1ccc(Cn2cc(-c3nnn(Cc4ccccc4)n3)c3ccccc32)cc1
- pIC50 (MDA-MB-231): 5.09
- pIC50 (MCF7): 4.92
- pIC50 (T47D): 4.80

SMILES: Clc1ccc(Cn2nnc(-c3cn(Cc4ccccc4)c4ccccc34)n2)c(Cl)c1
- pIC50 (MDA-MB-231): 5.11
- pIC50 (MCF7): 4.90
- pIC50 (T47D): 4.96

SMILES: Cc1ccc(Cn2cc(-c3nnn(Cc4ccc(Cl)cc4)n3)c3ccccc32)cc1
- pIC50 (MDA-MB-231): 4.94
- pIC50 (MCF7): 4.79
- pIC50 (T47D): 4.73

SMILES: Cc1ccc(Cn2cc(-c3nnn(Cc4ccc(Cl)c(Cl)c4)n3)c3ccccc32)cc1
- pIC50 (MDA-MB-231): 4.83
- pIC50 (MCF7): 5.06
- pIC50 (T47D): 4.62

SMILES: Clc1ccc(Cn2nnc(-c3cn(Cc4ccccc4)c4ccccc34)n2)cc1Cl
- IC50 at 48 h [1]: > 125 µM
- pIC50 (MDA-MB-231): 4.71
- pIC50 (MCF7): 5.10
- pIC50 (T47D): 5.00

SMILES: c1ccc(Cn2nnc(-c3cn(Cc4ccccc4)c4ccccc34)n2)cc1
- pIC50 (MDA-MB-231): 4.83
- pIC50 (MCF7): 5.03
- pIC50 (T47D): 4.87

SMILES: Cc1ccc(Cn2cc(-c3nnnn3Cc3ccc(Cl)c(Cl)c3)c3ccccc32)cc1
- pIC50 (MDA-MB-231): 4.91
- pIC50 (MCF7): 4.99
- pIC50 (T47D): 5.05

SMILES: Cc1ccc(Cn2cc(-c3nnn(Cc4cccc(Cl)c4)n3)c3ccccc32)cc1
- pIC50 (MDA-MB-231): 4.89
- pIC50 (MCF7): 4.88
- pIC50 (T47D): 4.85

SMILES: Cc1ccc(Cn2cc(-c3nnn(Cc4ccc(F)cc4)n3)c3ccccc32)cc1
- pIC50 (MDA-MB-231): 4.88
- pIC50 (MCF7): 4.88
- pIC50 (T47D): 4.80

SMILES: Cc1c(-c2ccc(O)cc2)n(Cc2ccc(OCCN3CCCCCC3)cc2)c2ccc(O)cc12 [BAZEDOXIFENE]
- IC50 at 48 h [1]: 38.5 µM
- pIC50 (MDA-MB-231): 5.17
- pIC50 (MCF7): 5.14
- pIC50 (T47D): 4.85

SMILES: Cc1ccc(Cn2cc(-c3nnn[nH]3)c3ccccc32)cc1
- pIC50 (MDA-MB-231): 4.86
- pIC50 (MCF7): 5.00
- pIC50 (T47D): 4.85

SMILES: COc1cccc(Cn2nnc(-c3cn(Cc4ccc(C)cc4)c4ccccc34)n2)c1
- pIC50 (MDA-MB-231): 4.92
- pIC50 (MCF7): 4.82
- pIC50 (T47D): < 4.60

SMILES: Cc1ccc(Cn2cc(-c3nnnn3Cc3cccc(Cl)c3)c3ccccc32)cc1
- pIC50 (MDA-MB-231): 5.07
- pIC50 (MCF7): 4.83
- pIC50 (T47D): 4.70

SMILES: Clc1ccc(Cn2nnc(-c3cn(Cc4ccccc4)c4ccccc34)n2)cc1
- IC50 at 48 h [1]: 109 µM
- pIC50 (MDA-MB-231): 4.80
- pIC50 (MCF7): 5.11
- pIC50 (T47D): 5.42

SMILES: Cc1ccc(Cn2nnc(-c3cn(Cc4ccc(C)cc4)c4ccccc34)n2)cc1
- pIC50 (MDA-MB-231): 4.80
- pIC50 (MCF7): < 4.60
- pIC50 (T47D): < 4.60

SMILES: Cc1ccc(Cn2cc(-c3nnn(Cc4ccc(Cl)cc4Cl)n3)c3ccccc32)cc1
- pIC50 (MDA-MB-231): 4.78
- pIC50 (MCF7): 4.78
- pIC50 (T47D): 4.97

SMILES: Cc1ccc(Cn2cc(-c3nnnn3Cc3ccccc3)c3ccccc32)cc1
- pIC50 (MDA-MB-231): 5.02
- pIC50 (MCF7): 5.00
- pIC50 (T47D): 4.84

SMILES: Fc1ccc(Cn2nnc(-c3cn(Cc4ccccc4)c4ccccc34)n2)cc1
- pIC50 (MDA-MB-231): 4.89
- pIC50 (MCF7): 4.64
- pIC50 (T47D): 4.75

SMILES: Cc1ccc(Cn2cc(-c3nnnn3Cc3ccc(Cl)cc3Cl)c3ccccc32)cc1
- pIC50 (MDA-MB-231): 4.95
- pIC50 (MCF7): 5.08
- pIC50 (T47D): 5.09

SMILES: c1ccc(Cn2cc(-c3nnn[nH]3)c3ccccc32)cc1
- pIC50 (MDA-MB-231): 4.78
- pIC50 (MCF7): < 4.60
- pIC50 (T47D): 4.61

SMILES: COc1cccc(Cn2nnc(-c3cn(Cc4ccccc4)c4ccccc34)n2)c1
- pIC50 (MDA-MB-231): 4.80
- pIC50 (MCF7): 5.51
- pIC50 (T47D): 4.78

SMILES: Cc1ccc(Cn2nnnc2-c2cn(Cc3ccc(C)cc3)c3ccccc23)cc1
- pIC50 (MDA-MB-231): 5.01
- pIC50 (MCF7): 4.69
- pIC50 (T47D): 4.63

SMILES: Cc1ccc(Cn2nnc(-c3cn(Cc4ccccc4)c4ccccc34)n2)cc1
- pIC50 (MDA-MB-231): 4.87
- pIC50 (MCF7): 4.95
- pIC50 (T47D): 5.00

SMILES: Clc1cccc(Cn2nnc(-c3cn(Cc4ccccc4)c4ccccc34)n2)c1
- pIC50 (MDA-MB-231): 4.72
- pIC50 (MCF7): 4.85
- pIC50 (T47D): 4.93
